{"source": "ChEMBL document CHEMBL5214900", "about": "“Design, Synthesis, and Biological Evaluation of Membrane-Active Bakuchiol Derivatives as Effective Broad-Spectrum Antibacterial Agents” (J Med Chem, 2021)", "key": {"Staphylococcus aureus [1]": {"system": "Staphylococcus aureus", "assay": "Antibacterial activity against Staphylococcus aureus ATCC 29213 assessed as inhibition of bacterial growth incubated for 24 hrs by CLSI based broth dilution method", "assay_type": "functional"}, "Staphylococcus aureus [2]": {"system": "Staphylococcus aureus", "assay": "Antibacterial activity against methicillin-resistant Staphylococcus aureus NCTC10442 assessed as inhibition of bacterial growth incubated for 24 hrs by CLSI based broth dilution method", "assay_type": "functional"}, "Acinetobacter baumannii [3]": {"system": "Acinetobacter baumannii", "assay": "Antibacterial activity against Acinetobacter baumannii ATCC 17978 assessed as inhibition of bacterial growth incubated for 24 hrs by CLSI based broth dilution method", "assay_type": "functional"}, "Klebsiella pneumoniae": {"system": "Klebsiella pneumoniae", "assay": "Antibacterial activity against Klebsiella pneumoniae ATCC 10031 assessed as inhibition of bacterial growth incubated for 24 hrs by CLSI based broth dilution method", "assay_type": "functional"}, "Staphylococcus aureus [4]": {"system": "Staphylococcus aureus", "assay": "Antibacterial activity against Staphylococcus aureus ATCC 29213 assessed as fold increase in MIC incubated for 24 hrs in presence of 140 mM Na+ by CLSI based broth dilution method", "assay_type": "functional"}, "Staphylococcus aureus [5]": {"system": "Staphylococcus aureus", "assay": "Antibacterial activity against Staphylococcus aureus NCTC10442 assessed as fold increase in MIC incubated for 24 hrs in presence of 140 mM Na+ by CLSI based broth dilution method", "assay_type": "functional"}, "Acinetobacter baumannii [6]": {"system": "Acinetobacter baumannii", "assay": "Antibacterial activity against Acinetobacter baumannii ATCC 17978 assessed as fold increase in MIC incubated for 24 hrs in presence of 4.5 mM K+ by CLSI based broth dilution method", "assay_type": "functional"}, "Acinetobacter baumannii [7]": {"system": "Acinetobacter baumannii", "assay": "Antibacterial activity against Acinetobacter baumannii ATCC 17978 assessed as fold increase in MIC incubated for 24 hrs in presence of 2.5 mM Ca2+ by CLSI based broth dilution method", "assay_type": "functional"}, "Escherichia coli [8]": {"system": "Escherichia coli", "assay": "Antibacterial activity against Escherichia coli ATCC 25922 assessed as fold increase in MIC incubated for 24 hrs in presence of 140 mM Na+ by CLSI based broth dilution method", "assay_type": "functional"}, "Escherichia coli [9]": {"system": "Escherichia coli", "assay": "Antibacterial activity against Escherichia coli ATCC 25922 assessed as fold increase in MIC incubated for 24 hrs in presence of 1 mM Mg2+ by CLSI based broth dilution method", "assay_type": "functional"}, "Cell membrane [10]": {"system": "Cell membrane", "assay": "Disruption of membrane integrity in Staphylococcus aureus ATCC 29213 assessed as increase in red fluorescence intensity at 8 times MIC incubated for 2 hrs by SYTO 9/PI staining based fluorescence analysis", "assay_type": "subcellular"}, "Cell membrane [11]": {"system": "Cell membrane", "assay": "Disruption of membrane integrity in Pseudomonas aeruginosa ATCC 9027 assessed as increase in red fluorescence intensity at 8 times MIC incubated for 2 hrs by SYTO 9/PI staining based fluorescence analysis", "assay_type": "subcellular"}, "Cell membrane [12]": {"system": "Cell membrane", "assay": "Induction of outer membrane permeabilization in Escherichia coli ATCC 25922 assessed as increase in fluorescence intensity at 1 to 8 times MIC measured for 60 mins by NPN uptake assay", "assay_type": "subcellular", "settings": "DDE = dose-dependent effect"}, "Lipoteichoic acid": {"system": "Lipoteichoic acid", "assay": "Displacement of BODIPY-TR-cadaverine from Bacillus subtilis Lipoteichoic acid at 4 times MIC measured for 30 mins by fluorescence based microplate reader assay relative to control"}, "Lipopolysaccharide (LPS)": {"system": "Lipopolysaccharide (LPS)", "assay": "Displacement of BODIPY-TR-cadaverine from Escherichia coli Lipopolysaccharide at 1 times MIC measured for 30 mins by fluorescence based microplate reader assay relative to control"}, "Escherichia coli [13]": {"system": "Escherichia coli", "assay": "Induction of drug resistance in Escherichia coli ATCC 25922 assessed as fold change in MIC measured after 19 passages by CLSI based broth dilution method", "assay_type": "functional"}, "[14]": {"assay": "Cytotoxicity against HEK293 cells assessed as cell viability at 12.5 ug/ml incubated for 24 hrs by CCK-8 assay relative to control", "assay_type": "toxicity, cell-based", "settings": "human, at 12.5 µg/mL, read-out: Activity"}, "Escherichia coli [15]": {"system": "Escherichia coli", "assay": "Antibiofilm activity against Escherichia coli ATCC 25922 assessed reduction in biofilm formation at 0.39 ug/ml measured after 24 hrs by crystal violet staining based assay relative to control", "assay_type": "functional", "design": "scale not given: the % may be the effect or the level left", "settings": "dose 0.39 µg/ml"}, "Staphylococcus aureus [16]": {"system": "Staphylococcus aureus", "assay": "Antibiofilm activity against Staphylococcus aureus ATCC 29213 assessed reduction in biofilm formation at […] ug/ml measured after 24 hrs by crystal violet staining based assay relative to control", "assay_type": "functional", "design": "scale not given: the % may be the effect or the level left", "settings": "dose […] microg/ml, 1.56 ug/mL"}, "Staphylococcus aureus [17]": {"system": "Staphylococcus aureus", "assay": "Antibiofilm activity against Staphylococcus aureus ATCC 29213 assessed reduction in biofilm formation at 3.125 ug/ml measured after 24 hrs by crystal violet staining based assay relative to control", "assay_type": "functional", "design": "scale not given: the % may be the effect or the level left", "settings": "dose 3.125 µg/ml"}, "Escherichia coli [18]": {"system": "Escherichia coli", "assay": "Antibiofilm activity against Escherichia coli ATCC 25922 assessed reduction in biofilm formation at 0.78 ug/ml measured after 24 hrs by crystal violet staining based assay relative to control", "assay_type": "functional", "design": "scale not given: the % may be the effect or the level left", "settings": "dose 0.78 µg/ml"}, "Escherichia coli [19]": {"system": "Escherichia coli", "assay": "Antibiofilm activity against Escherichia coli ATCC 25922 assessed reduction in biofilm formation at […] ug/ml measured after 24 hrs by crystal violet staining based assay relative to control", "assay_type": "functional", "design": "scale not given: the % may be the effect or the level left", "settings": "dose […] microg/ml, 1.56 ug/mL"}, "Escherichia coli [20]": {"system": "Escherichia coli", "assay": "Antibiofilm activity against Escherichia coli ATCC 25922 assessed reduction in biofilm formation at 6.25 ug/ml measured after 24 hrs by crystal violet staining based assay relative to control", "assay_type": "functional", "design": "scale not given: the % may be the effect or the level left", "settings": "dose 6.25 µg/ml"}, "Staphylococcus aureus [21]": {"system": "Staphylococcus aureus", "assay": "Antibacterial activity against Staphylococcus aureus ATCC 29213 assessed as eradication of preformed bacterial biofilm by measuring residual biofilm viability at 0.78 ug/ml incubated for 24 hrs by crystal violet staining based assay relative to control", "assay_type": "functional", "settings": "dose 0.78 µg/ml"}, "Staphylococcus aureus [22]": {"system": "Staphylococcus aureus", "assay": "Antibacterial activity against Staphylococcus aureus ATCC 29213 assessed as eradication of preformed bacterial biofilm by measuring residual biofilm viability at […] ug/ml incubated for 24 hrs by crystal violet staining based assay relative to control", "assay_type": "functional", "settings": "dose […] microg/ml, 1.56 ug/mL"}, "Staphylococcus aureus [23]": {"system": "Staphylococcus aureus", "assay": "Antibacterial activity against Staphylococcus aureus ATCC 29213 assessed as eradication of preformed bacterial biofilm by measuring residual biofilm viability at 3.125 ug/ml incubated for 24 hrs by crystal violet staining based assay relative to control", "assay_type": "functional", "settings": "dose 3.125 µg/ml"}, "Escherichia coli [24]": {"system": "Escherichia coli", "assay": "Antibacterial activity against Escherichia coli ATCC 25922 assessed as eradication of preformed bacterial biofilm by measuring residual biofilm viability at […] ug/ml incubated for 24 hrs by crystal violet staining based assay relative to control", "assay_type": "functional", "settings": "dose […] microg/ml, 1.56 ug/mL"}, "Escherichia coli [25]": {"system": "Escherichia coli", "assay": "Antibacterial activity against Escherichia coli ATCC 25922 assessed as eradication of preformed bacterial biofilm by measuring residual biofilm viability at 6.25 ug/ml incubated for 24 hrs by crystal violet staining based assay relative to control", "assay_type": "functional", "settings": "dose 6.25 µg/ml"}, "Escherichia coli [26]": {"system": "Escherichia coli", "assay": "Antibacterial activity against Escherichia coli ATCC 25922 assessed as eradication of preformed bacterial biofilm by measuring residual biofilm viability at 12.5 ug/ml incubated for 24 hrs by crystal violet staining based assay relative to control", "assay_type": "functional", "settings": "dose 12.5 µg/ml"}, "Escherichia coli [27]": {"system": "Escherichia coli", "assay": "Antibacterial activity against Escherichia coli ATCC 25922 assessed as eradication of preformed bacterial biofilm by measuring residual biofilm viability at 25 ug/ml incubated for 24 hrs by crystal violet staining based assay relative to control", "assay_type": "functional", "settings": "dose 25 µg/ml"}, "Staphylococcus aureus [28]": {"system": "Staphylococcus aureus", "assay": "Antibacterial activity against Staphylococcus aureus ATCC 29213 in C57BL/6 mouse model of bacterial keratitis assessed as log reduction in number of viable bacterial colonies in infected cornea at 0.8 mg/ml, TOP administered 4 times a day for 3 consecutive days", "assay_type": "functional", "settings": "time 3 day"}, "Pseudomonas aeruginosa": {"system": "Pseudomonas aeruginosa", "assay": "Antibacterial activity against Pseudomonas aeruginosa ATCC 9027 in C57BL/6 mouse model of bacterial keratitis assessed as log reduction in number of viable bacterial colonies in infected cornea at 0.8 mg/ml, TOP administered 4 times a day for 3 consecutive days", "assay_type": "functional", "settings": "time 3 day"}}, "note": "The source made the active and inactive calls. No cut-off for these calls is given here.", "data": [{"smiles": "C=C[C@@](C)(/C=C/c1ccc(OCCCCN(CCCN(C)C)CCCN(C)C)cc1)CCC=C(C)C", "values": [{"measurement": "MIC", "setting": "Staphylococcus aureus [1]", "result": 3.12, "unit": "µg/mL"}, {"measurement": "MIC", "setting": "Staphylococcus aureus [2]", "result": 1.56, "unit": "µg/mL"}, {"measurement": "MIC", "setting": "Acinetobacter baumannii [3]", "result": 3.12, "unit": "µg/mL"}, {"measurement": "MIC", "setting": "Klebsiella pneumoniae", "result": 3.12, "unit": "µg/mL"}, {"measurement": "fold change (FC)", "setting": "Staphylococcus aureus [4]", "result": "<2"}, {"measurement": "fold change (FC)", "setting": "Staphylococcus aureus [5]", "result": "<2"}, {"measurement": "fold change (FC)", "setting": "Acinetobacter baumannii [6]", "result": "<2"}, {"measurement": "fold change (FC)", "setting": "Acinetobacter baumannii [7]", "result": "<2"}, {"measurement": "fold change (FC)", "setting": "Escherichia coli [8]", "result": "<2"}, {"measurement": "fold change (FC)", "setting": "Escherichia coli [9]", "result": "<2"}, {"measurement": "Activity", "setting": "Cell membrane [10]", "result": "Active"}, {"measurement": "Activity", "setting": "Cell membrane [11]", "result": "Active"}, {"measurement": "Activity", "setting": "Cell membrane [12]", "result": "Dde"}, {"measurement": "Activity", "setting": "Lipoteichoic acid", "result": 37.2, "unit": "%"}, {"measurement": "Activity", "setting": "Lipopolysaccharide (LPS)", "result": 36.9, "unit": "%"}, {"measurement": "fold change (FC)", "setting": "Escherichia coli [13]", "result": "< 4"}, {"measurement": "viability at 24 h, 12.5 ug/ml", "setting": "[14]", "result": 84.9, "unit": "%"}, {"measurement": "Activity", "setting": "Escherichia coli [15]", "result": 4.04, "unit": "%"}, {"measurement": "Activity", "setting": "Staphylococcus aureus [16]", "result": 42.21, "unit": "%"}, {"measurement": "Activity", "setting": "Staphylococcus aureus [17]", "result": 96.53, "unit": "%"}, {"measurement": "Activity", "setting": "Escherichia coli [18]", "result": 8.71, "unit": "%"}, {"measurement": "Activity", "setting": "Escherichia coli [19]", "result": 38.45, "unit": "%"}, {"measurement": "Activity", "setting": "Escherichia coli [20]", "result": 95.7, "unit": "%"}, {"measurement": "Activity", "setting": "Staphylococcus aureus [21]", "result": 88.63, "unit": "%"}, {"measurement": "Activity", "setting": "Staphylococcus aureus [22]", "result": 75.68, "unit": "%"}, {"measurement": "Activity", "setting": "Staphylococcus aureus [23]", "result": 52.49, "unit": "%"}, {"measurement": "Activity", "setting": "Escherichia coli [24]", "result": 69.09, "unit": "%"}, {"measurement": "Activity", "setting": "Escherichia coli [25]", "result": 22.69, "unit": "%"}, {"measurement": "Activity", "setting": "Escherichia coli [26]", "result": 10.78, "unit": "%"}, {"measurement": "Activity", "setting": "Escherichia coli [27]", "result": 2.38, "unit": "%"}, {"measurement": "log(activity)", "setting": "Staphylococcus aureus [28]", "result": 5.7}, {"measurement": "log(activity)", "setting": "Pseudomonas aeruginosa", "result": 2.95}]}]}
